Values joined by “and” are separate entries in the source; they are usually repeats but may differ in a detail not shown here. Equal values may be shown once.
Tested on: Human Dermal Microvascular Endothelial Cell (HDMEC)
Assay: Promoting activity in vitro on human dermal microvascular endothelial cell (HDMEC) proliferation
Format: cell-based
Details: positive control: bFGF solution 0.1 μg/mL medium
Description: The wound healing-promoting activity of test compounds were investigated in terms of the promotion activity on HDMEC proliferation in the following manner. As a HDMEC, normal adult dermal microvascular endothelial cells (Hybridoma (1996): Vol. 15 (4), pp 279-288) were used in this study.
A suspension of HDMEC mentioned above (2×10^4 cells/mL; Cryo HMVEC-Ad; trademark registered by Cambrex Inc.) were seeded on 48-well plate (250 μL/well). The cells were cultured in a proliferation medium (BletKit EGM-2-MV; trademark registered by Cambrex Inc.) for one day. After substituting an assay medium (450 μL, bFGF-, EGF- and VEGF-free BletKit EGM-2-MV; trademark registered by Cambrex Inc.) for the proliferation medium, a dimethylsulfoxide solution of the test compound (0.1 v/v %, 50 μL) was added to each well and the cells were cultured for 96 hours. After culturing, the assay medium was removed by aspiration and the residual cells were suspended in Isoton II solution (500 μL; Beckmann-Coulter Ltd.) containing 0.05% trypsin and 0.02% ethylenediaminetetraacetic acid. The suspension was diluted (11-fold) with Isoton II solution (5 mL) and the number of cells were counted by Coulter-Counter Z1 (Beckmann-Coulter Ltd.).
As a negative control group, HDMEC was cultured in the same manner, but in the absence of the test compound, as described above. […]

What does the source list for “Positive control: bFGF solution (0.1 μg/mL medium) used instead of the test compound solution; basic fibroblast growth factor”?
Number of cells after 96 hours: 1.31 × 10^4 cells and 1.81 × 10^4 cells and 2.03 × 10^4 cells; Number of cells after 96 hours (listed as positive control): 1.95 × 10^4 cells

Reference: patent US8809360B2, “Use of a pyridine compound for the preparation of a medicament for the treatment of skin lesions” (Mitsubishi Tanabe Pharma Corporation, priority 2004, dated 2014)
